In patent US20080064667A1, “OXAZOLE DERIVATIVES OF TETRACYCLINES” (Wyeth, priority 2003, published 2008):
Converted amounts (≈) assume the structure as drawn.

Key:
Assay in all cases: MIC, broth microdilution (NCCLS)
Format in all cases: cell-based
[1] = system: C. albicans GC3066 ATCC (Control); conditions: Candida albicans, Mueller-Hinton II broth, 18-22 hours at 35° C.
Protocol: (§1) Methods for in Vitro Antibacterial Evaluation
(§2) The Minimum Inhibitory Concentration (MIC)
(§3) Antimicrobial susceptibility testing. The in vitro activities of the antibiotics are determined by the broth microdilution method as recommended by the National Committee for Clinical Laboratory Standards (NCCLS) (1). Mueller-Hinton II broth (MHBII)(BBL Cockeysville, Md.) is the medium employed in the testing procedures. Microtiter plates containing serial dilutions of each antimicrobial agent are inoculated with each organism to yield the appropriate density (10^5 CFU/ml) in a 100 μl final volume. The plates are incubated for 18-22 hours at 35° C. in ambient air.
(§4) 1. NCCLS. 2000. Methods for Dilution Antimicrobial Susceptibility Tests for Bacteria That Grow Aerobically; Approved Standards: M7-A5, vol. 20. National Committe for Clinical Laboratory Standards, Wayne, Pa.

E. coli GC1073 (tet(B)) = conditions: Escherichia coli
Protocol: as §1, §2, §3, §4

[2] = system: E. coli GC2203 (ATCC Control); conditions: Escherichia coli, Mueller-Hinton II broth, 18-22 hours at 35° C.
Protocol: as §1, §2, §3, §4

E. coli GC2270 (tet(M)) = conditions: Escherichia coli
Protocol: as §1, §2, §3, §4

[3] = system: E. coli GC4559 (parent GC4560); conditions: Escherichia coli, Mueller-Hinton II broth, 18-22 hours at 35° C.
Protocol: as §1, §2, §3, §4

[4] = system: E. coli GC4560 (IMP mutant); conditions: Escherichia coli
Protocol: as §1, §2, §3, §4

[5] = system: E. faecalis GC2242 (Van-resistant); conditions: Enterococcus faecalis, Mueller-Hinton II broth, 18-22 hours at 35° C.
Protocol: as §1, §2, §3, §4

[6] = system: E. faecalis GC4555 (ATCC Control); conditions: Enterococcus faecalis, Mueller-Hinton II broth, 18-22 hours at 35° C.
Protocol: as §1, §2, §3, §4

[7] = system: H. influenzae<> GC6896 (ATCC Control); conditions: Haemophilus influenzae, Mueller-Hinton II broth, 18-22 hours at 35° C.
Protocol: as §1, §2, §3, §4

[8] = system: M. catarrhalis* GC6907 (Clinical); conditions: Moraxella catarrhalis, Mueller-Hinton II broth, 18-22 hours at 35° C.
Protocol: as §1, §2, §3, §4

[9] = system: S. aureus GC1079 (tet(K)); conditions: Staphylococcus aureus, Mueller-Hinton II broth, 18-22 hours at 35° C.
Protocol: as §1, §2, §3, §4

[10] = system: S. aureus GC1131 (Clinical); conditions: Staphylococcus aureus, Mueller-Hinton II broth, 18-22 hours at 35° C.
Protocol: as §1, §2, §3, §4

[11] = system: S. aureus GC2216 (ATCC Control); conditions: Staphylococcus aureus, Mueller-Hinton II broth, 18-22 hours at 35° C.
Protocol: as §1, §2, §3, §4

[12] = system: S. aureus GC4536 (Smith MP -In Vivo); conditions: Staphylococcus aureus, Mueller-Hinton II broth, 18-22 hours at 35° C.
Protocol: as §1, §2, §3, §4

[13] = system: S. aureus GC6466 (tet(M)); conditions: Staphylococcus aureus, Mueller-Hinton II broth, 18-22 hours at 35° C.
Protocol: as §1, §2, §3, §4

[14] = system: S. pneumoniae* GC1894 (Clinical); conditions: Streptococcus pneumoniae, Mueller-Hinton II broth, 18-22 hours at 35° C.
Protocol: as §1, §2, §3, §4

[15] = system: S. pneumoniae* GC4465 (Clinical); conditions: Streptococcus pneumoniae, Mueller-Hinton II broth, 18-22 hours at 35° C.
Protocol: as §1, §2, §3, §4

[16] = system: S. pyogenes* GC4563 (Clinical); conditions: Streptococcus pyogenes, Mueller-Hinton II broth, 18-22 hours at 35° C.
Protocol: as §1, §2, §3, §4

Row | SMILES | MIC [1] [µg/mL] | MIC (E. coli GC1073 (tet(B))) [µg/mL] | MIC [2] [µg/mL] | MIC (E. coli GC2270 (tet(M))) [µg/mL] | MIC [3] [µg/mL] | MIC [4] [µg/mL] | MIC [5] [µg/mL] | MIC [6] [µg/mL] | MIC [7] [µg/mL] | MIC [8] [µg/mL] | MIC [9] [µg/mL] | MIC [10] [µg/mL] | MIC [11] [µg/mL] | MIC [12] [µg/mL] | MIC [13] [µg/mL] | MIC [14] [µg/mL] | MIC [15] [µg/mL] | MIC [16] [µg/mL]
1 | CN(C)c1cc2nc(-c3nccs3)oc2c2c1C[C@H]1C[C@H]3[C@H](N(C)C)C(O)=C(C(N)=O)C(=O)[C@@]3(O)C(O)=C1C2=O [Example 24, (6aR,7aS,8S,11aS)-5,8-bis(dimethylamino)-9,11a,12-trihydroxy-11,13-dioxo-2-(1,3-thiazol-2-yl)-6,6a,7,7a,8,11,11a,13-octahydrotetraceno[2,1-d][1,3]oxazole-10-carboxamide] | > 64 | > 64 | > 64 | > 64 | > 64 | 32 (≈ 56.6 µM) | 32 (≈ 56.6 µM) | 32 (≈ 56.6 µM) | > 64 | > 64 | 32 (≈ 56.6 µM) | 32 (≈ 56.6 µM) | 64 (≈ 113 µM) | 32 (≈ 56.6 µM) | 32 (≈ 56.6 µM) | 64 (≈ 113 µM) | 64 (≈ 113 µM) | 32 (≈ 56.6 µM)
2 | CN(C)c1cc2nc(C(C)(C)C)oc2c2c1C[C@H]1C[C@H]3[C@H](N(C)C)C(O)=C(C(N)=O)C(=O)[C@@]3(O)C(O)=C1C2=O [Example 4, (6aR,7aS,8S,11aS)-2-tert-butyl-5,8-bis(dimethylamino)-9,11a,12-trihydroxy-11,13-dioxo-6,6a,7,7a,8,11,11a,13-octahydrotetraceno[2,1-d][1,3]oxazole-10-carboxamide] | > 64 | > 64 | > 64 | > 64 | > 64 | 16 (≈ 29.7 µM) | 32 (≈ 59.4 µM) | 32 (≈ 59.4 µM) | > 64 | 16 (≈ 29.7 µM) | 16 (≈ 29.7 µM) | 16 (≈ 29.7 µM) | 32 (≈ 59.4 µM) | 32 (≈ 59.4 µM) | 32 (≈ 59.4 µM) | 32 (≈ 59.4 µM) | 16 (≈ 29.7 µM) | 16 (≈ 29.7 µM)
3 | CN(C)c1cc2nc(/C=C/c3ccc(F)cc3)oc2c2c1C[C@H]1C[C@H]3[C@H](N(C)C)C(O)=C(C(N)=O)C(=O)[C@@]3(O)C(O)=C1C2=O [Example 29, (6aR,7aS,8S,11aS)-5,8-bis(dimethylamino)-2-[(E)-2-(4-fluorophenyl)ethenyl]-9,11a,12-trihydroxy-11,13-dioxo-6,6a,7,7a,8,11,11a,13-octahydrotetraceno[2,1-d][1,3]oxazole-10-carboxamide] | > 64 | > 64 | > 64 | > 64 | > 64 | 8 (≈ 13.3 µM) | 8 (≈ 13.3 µM) | 8 (≈ 13.3 µM) | > 64 | 16 (≈ 26.6 µM) | 8 (≈ 13.3 µM) | 8 (≈ 13.3 µM) | 8 (≈ 13.3 µM) | 8 (≈ 13.3 µM) | 8 (≈ 13.3 µM) | 32 (≈ 53.1 µM) | 32 (≈ 53.1 µM) | 16 (≈ 26.6 µM)
4 | CN(C)c1cc2nc(-c3cccnc3)oc2c2c1C[C@H]1C[C@H]3[C@H](N(C)C)C(O)=C(C(N)=O)C(=O)[C@@]3(O)C(O)=C1C2=O [Example 34, (6aR,7aS,8S,11aS)-5,8-bis(dimethylamino)-9,11a,12-trihydroxy-11,13-dioxo-2-pyridin-3-yl-6,6a,7,7a,8,11,11a,13-octahydrotetraceno[2,1-d][1,3]oxazole-10-carboxamide] | > 64 | > 64 | > 64 | > 64 | > 64 | 32 (≈ 57.2 µM) | 32 (≈ 57.2 µM) | 32 (≈ 57.2 µM) | > 64 | 16 (≈ 28.6 µM) | 32 (≈ 57.2 µM) | 32 (≈ 57.2 µM) | 32 (≈ 57.2 µM) | 64 (≈ 114 µM) | 64 (≈ 114 µM) | 64 (≈ 114 µM) | 32 (≈ 57.2 µM) | 32 (≈ 57.2 µM)
5 | CCOc1cc(OCC)c(-c2nc3cc(N(C)C)c4c(c3o2)C(=O)C2=C(O)[C@]3(O)C(=O)C(C(N)=O)=C(O)[C@@H](N(C)C)[C@@H]3C[C@@H]2C4)cc1OCC [Example 16, (6aR,7aS,8S,11aS)-5,8-bis(dimethylamino)-9,11a,12-trihydroxy-11,13-dioxo-2-(2,4,5-triethoxyphenyl)-6,6a,7,7a,8,11,11a,13-octahydrotetraceno[2,1-d][1,3]oxazole-10-carboxamide] | > 64 | > 64 | > 64 | > 64 | > 64 | 16 (≈ 23.2 µM) | 16 (≈ 23.2 µM) | 16 (≈ 23.2 µM) | > 64 | > 64 | 16 (≈ 23.2 µM) | 16 (≈ 23.2 µM) | 16 (≈ 23.2 µM) | 16 (≈ 23.2 µM) | 16 (≈ 23.2 µM) | > 64 | > 64 | 64 (≈ 92.7 µM)
6 | CN(C)c1cc2nc(/C=C/c3ccco3)oc2c2c1C[C@H]1C[C@H]3[C@H](N(C)C)C(O)=C(C(N)=O)C(=O)[C@@]3(O)C(O)=C1C2=O [Example 22, (6aR,7aS,8S,11aS)-5,8-bis(dimethylamino)-2-[(E)-2-(2-furyl)ethenyl]-9,11a,12-trihydroxy-11,13-dioxo-6,6a,7,7a,8,11,11a,13-octahydrotetraceno[2,1-d][1,3]oxazole-10-carboxamide] | > 64 | > 64 | > 64 | > 64 | > 64 | 8 (≈ 13.9 µM) | 8 (≈ 13.9 µM) | 8 (≈ 13.9 µM) | > 64 | 16 (≈ 27.8 µM) | 8 (≈ 13.9 µM) | 8 (≈ 13.9 µM) | 8 (≈ 13.9 µM) | 8 (≈ 13.9 µM) | 8 (≈ 13.9 µM) | 32 (≈ 55.7 µM) | 32 (≈ 55.7 µM) | 16 (≈ 27.8 µM)
7 | COc1ccc(/C=C/c2nc3cc(N(C)C)c4c(c3o2)C(=O)C2=C(O)[C@]3(O)C(=O)C(C(N)=O)=C(O)[C@@H](N(C)C)[C@@H]3C[C@@H]2C4)cc1 [Example 26, (6aR,7aS,8S,11aS)-5,8-bis(dimethylamino)-9,11a,12-trihydroxy-2-[(E)-2-(4-methoxyphenyl)ethenyl]-11,13-dioxo-6,6a,7,7a,8,11,11a,13-octahydrotetraceno[2,1-d][1,3]oxazole-10-carboxamide] | > 64 | > 64 | > 64 | > 64 | > 64 | 32 (≈ 52.1 µM) | 16 (≈ 26 µM) | 32 (≈ 52.1 µM) | > 64 | > 64 | 32 (≈ 52.1 µM) | 16 (≈ 26 µM) | 16 (≈ 26 µM) | 32 (≈ 52.1 µM) | 16 (≈ 26 µM) | > 64 | > 64 | 64 (≈ 104 µM)
8 | CN(C)c1cc2nc(-c3cc4ccccc4n3C)oc2c2c1C[C@H]1C[C@H]3[C@H](N(C)C)C(O)=C(C(N)=O)C(=O)[C@@]3(O)C(O)=C1C2=O [Example 19, (6aR,7aS,8S,11aS)-5,8-bis(dimethylamino)-9,11a,12-trihydroxy-2-(1-methyl-1H-indol-2-yl)-11,13-dioxo-6,6a,7,7a,8,11,11a,13-octahydrotetraceno[2,1-d][1,3]oxazole-10-carboxamide] | > 64 | > 64 | > 64 | > 64 | > 64 | 4 (≈ 6.54 µM) | 4 (≈ 6.54 µM) | 8 (≈ 13.1 µM) | > 64 | 16 (≈ 26.2 µM) | 4 (≈ 6.54 µM) | 4 (≈ 6.54 µM) | 4 (≈ 6.54 µM) | 8 (≈ 13.1 µM) | 4 (≈ 6.54 µM) | 4 (≈ 6.54 µM) | 4 (≈ 6.54 µM) | 8 (≈ 13.1 µM)
